From ChEMBL document CHEMBL3885861, “Open TG-GATES”

Organism: Rattus norvegicus
Assay: Open TG-GATES - Regimen: Single
Type: toxicity, organism-based, Sprague-Dawley
Parameters: regimen Single, gender Male, age 6 weeks
Settings: in vivo, po, 100 mg/kg, route gavage, dose level High; for APTT / Bas / Eos / Fbg / Hb / Ht / Lym / MCH / MCHC / MCV / Mono / Neu / PT / Plat / RBC / Ret / WBC: tissue Blood; for KIDNEY_L / KIDNEY_R / KIDNEY_TOTAL: tissue Kidney; for LIVER: tissue Liver; for A/G / ALP / ALT / AST / BUN / CRE / Ca / Cl / DBIL / GLC / IP / K / LDH / Na / PL / RALB / TBIL / TC / TG / TP / gamma-GTP: tissue Plasma

CCCc1cc(=O)[nH]c(=S)[nH]1 [PROPYLTHIOURACIL] showed a TERMINAL_BW (3 h) of 180.9 g, an APTT (3 h) of 15.7 s and a Bas (3 h) of 0%. It also gave an Eos (3 h) of 0.6%, a Fbg (3 h) of 210 mg/dL and a Hb (3 h) of 13.3 g/dL. It also gave a Ht (3 h) of 39.7%, a Lym (3 h) of 82.6% and an MCH (3 h) of 21.7 pg. It also gave an MCHC (3 h) of 33.3%, an MCV (3 h) of 65.1 fL and a Mono (3 h) of 5.8%. It also gave a Neu (3 h) of 10.8%, a PT (3 h) of 12.9 s and a Plat (3 h) of 99.3 x10_4/uL. It also gave an RBC (3 h) of 611.2 x10_4/ul, a Ret (3 h) of 9.7% and a WBC (3 h) of 96.7 x10_2/uL. For the same compound, the KIDNEY_L (3 h) was 0.8 g, the KIDNEY_R (3 h) was 0.8 g and the KIDNEY_TOTAL (3 h) was 1.6 g. The LIVER (3 h) was 8.3 g, the A/G (3 h) was 1.9 and the ALP (3 h) was 858.8 IU/L. For the same compound, the ALT (3 h) was 38 IU/L, the AST (3 h) was 70.2 IU/L and the BUN (3 h) was 12.6 mg/dL. The CRE (3 h) was 0.4 mg/dL, the Ca (3 h) was 10.9 mg/dL and the Cl (3 h) was 105 meq/L. The DBIL (3 h) was 0.03 mg/dL, the GLC (3 h) was 189.4 mg/dL and the IP (3 h) was 10.9 mg/dL. It also gave a K (3 h) of 4.2 meq/L, an LDH (3 h) of 141 IU/L and a Na (3 h) of 138.4 meq/L. The PL (3 h) was 138 mg/dL, the RALB (3 h) was 3.7 g/dL and the TBIL (3 h) was 0.3 mg/dL. For the same compound, the TC (3 h) was 83.4 mg/dL, the TG (3 h) was 27 mg/dL and the TP (3 h) was 5.6 g/dL. It also gave a gamma-GTP (3 h) of 2 IU/L, a TERMINAL_BW (6 h) of 176.2 g and an APTT (6 h) of 16.5 s. For the same compound, the Bas (6 h) was 0%, the Eos (6 h) was 0.6% and the Fbg (6 h) was 213.2 mg/dL. It also gave a Hb (6 h) of 13.2 g/dL, a Ht (6 h) of 39.9% and a Lym (6 h) of 76%. For the same compound, the MCH (6 h) was 21.6 pg, the MCHC (6 h) was 33.2% and the MCV (6 h) was 65 fL. The Mono (6 h) was 5.2%, the Neu (6 h) was 18.2% and the PT (6 h) was 12.8 s. For the same compound, the Plat (6 h) was 106.5 x10_4/uL, the RBC (6 h) was 612.8 x10_4/ul and the Ret (6 h) was 9.9%. The WBC (6 h) was 77.1 x10_2/uL, the KIDNEY_L (6 h) was 0.8 g and the KIDNEY_R (6 h) was 0.8 g. For the same compound, the KIDNEY_TOTAL (6 h) was 1.6 g, the LIVER (6 h) was 7.5 g and the A/G (6 h) was 2.1. The ALP (6 h) was 762.4 IU/L, the ALT (6 h) was 27.8 IU/L and the AST (6 h) was 64 IU/L. It also gave a BUN (6 h) of 11.4 mg/dL, a CRE (6 h) of 0.4 mg/dL and a Ca (6 h) of 11 mg/dL. The Cl (6 h) was 105.4 meq/L, the DBIL (6 h) was 0.048 mg/dL and the GLC (6 h) was 186.8 mg/dL. For the same compound, the IP (6 h) was 10.5 mg/dL, the K (6 h) was 4.6 meq/L and the LDH (6 h) was 139.2 IU/L. For the same compound, the Na (6 h) was 139 meq/L, the PL (6 h) was 136.6 mg/dL and the RALB (6 h) was 3.8 g/dL. For the same compound, the TBIL (6 h) was 0.4 mg/dL, the TC (6 h) was 78.8 mg/dL and the TG (6 h) was 23 mg/dL. For the same compound, the TP (6 h) was 5.6 g/dL, the gamma-GTP (6 h) was 2 IU/L and the TERMINAL_BW (9 h) was 173.6 g. For the same compound, the APTT (9 h) was 15.9 s, the Bas (9 h) was 0% and the Eos (9 h) was 1.2%. For the same compound, the Fbg (9 h) was 207.4 mg/dL, the Hb (9 h) was 12.9 g/dL and the Ht (9 h) was 38.8%. The Lym (9 h) was 73.6%, the MCH (9 h) was 21.7 pg and the MCHC (9 h) was 33.3%. For the same compound, the MCV (9 h) was 65.1 fL, the Mono (9 h) was 8.2% and the Neu (9 h) was 17.2%. For the same compound, the PT (9 h) was 12.8 s, the Plat (9 h) was 110.6 x10_4/uL and the RBC (9 h) was 597.2 x10_4/ul. The Ret (9 h) was 9.9%, the WBC (9 h) was 65.2 x10_2/uL and the KIDNEY_L (9 h) was 0.8 g. The KIDNEY_R (9 h) was 0.8 g, the KIDNEY_TOTAL (9 h) was 1.6 g and the LIVER (9 h) was 7 g. For the same compound, the A/G (9 h) was 1.9, the ALP (9 h) was 879.2 IU/L and the ALT (9 h) was 31.2 IU/L. It also gave an AST (9 h) of 68 IU/L, a BUN (9 h) of 13.6 mg/dL and a CRE (9 h) of 0.4 mg/dL. For the same compound, the Ca (9 h) was 10.8 mg/dL, the Cl (9 h) was 108 meq/L and the DBIL (9 h) was 0.008 mg/dL. It also gave a GLC (9 h) of 186.6 mg/dL, an IP (9 h) of 10.4 mg/dL and a K (9 h) of 4.8 meq/L. The LDH (9 h) was 176.8 IU/L, the Na (9 h) was 139.4 meq/L and the PL (9 h) was 141.4 mg/dL. It also gave an RALB (9 h) of 3.6 g/dL, a TBIL (9 h) of 0.4 mg/dL and a TC (9 h) of 83.2 mg/dL. For the same compound, the TG (9 h) was 28 mg/dL, the TP (9 h) was 5.5 g/dL and the gamma-GTP (9 h) was 1.4 IU/L. It also gave a TERMINAL_BW (24 h) of 186.8 g, an APTT (24 h) of 15.6 s and a Bas (24 h) of 0%. It also gave an Eos (24 h) of 1%, a Fbg (24 h) of 217 mg/dL and a Hb (24 h) of 13.1 g/dL. For the same compound, the Ht (24 h) was 39.5%, the Lym (24 h) was 77.6% and the MCH (24 h) was 21.7 pg. For the same compound, the MCHC (24 h) was 33%, the MCV (24 h) was 65.7 fL and the Mono (24 h) was 7.2%. The Neu (24 h) was 14.6%, the PT (24 h) was 12.2 s and the Plat (24 h) was 108.5 x10_4/uL. For the same compound, the RBC (24 h) was 601.8 x10_4/ul, the Ret (24 h) was 9.3% and the WBC (24 h) was 115.2 x10_2/uL. It also gave a KIDNEY_L (24 h) of 0.9 g, a KIDNEY_R (24 h) of 0.9 g and a KIDNEY_TOTAL (24 h) of 1.7 g. For the same compound, the LIVER (24 h) was 9.9 g, the A/G (24 h) was 1.8 and the ALP (24 h) was 1169.8 IU/L. For the same compound, the ALT (24 h) was 42.6 IU/L, the AST (24 h) was 69.2 IU/L and the BUN (24 h) was 17.4 mg/dL. It also gave a CRE (24 h) of 0.5 mg/dL, a Ca (24 h) of 11.2 mg/dL and a Cl (24 h) of 106.8 meq/L. It also gave a DBIL (24 h) of 0.014 mg/dL, a GLC (24 h) of 175.2 mg/dL and an IP (24 h) of 8.1 mg/dL. For the same compound, the K (24 h) was 5 meq/L, the LDH (24 h) was 192.4 IU/L and the Na (24 h) was 139.8 meq/L. The PL (24 h) was 170.6 mg/dL, the RALB (24 h) was 3.7 g/dL and the TBIL (24 h) was 0.3 mg/dL. The TC (24 h) was 97.8 mg/dL, the TG (24 h) was 107 mg/dL and the TP (24 h) was 5.7 g/dL. It also gave a gamma-GTP (24 h) of 1.2 IU/L.
